Assays:
FAAH = target: T1, FAAH (Sus scrofa, UniProt Q9TUI8); assay: Fatty acid amide hydrolase (FAAH) inhibition, pig brain homogenate (assay D); type: biochemical; details: 1 µM; pig brain homogenate (assay D)
T1 construct: 165 µl of diluted pig brain homogenate; from tissue; host or cells: pig brain homogenate
T1 sequence (Q9TUI8 1-579): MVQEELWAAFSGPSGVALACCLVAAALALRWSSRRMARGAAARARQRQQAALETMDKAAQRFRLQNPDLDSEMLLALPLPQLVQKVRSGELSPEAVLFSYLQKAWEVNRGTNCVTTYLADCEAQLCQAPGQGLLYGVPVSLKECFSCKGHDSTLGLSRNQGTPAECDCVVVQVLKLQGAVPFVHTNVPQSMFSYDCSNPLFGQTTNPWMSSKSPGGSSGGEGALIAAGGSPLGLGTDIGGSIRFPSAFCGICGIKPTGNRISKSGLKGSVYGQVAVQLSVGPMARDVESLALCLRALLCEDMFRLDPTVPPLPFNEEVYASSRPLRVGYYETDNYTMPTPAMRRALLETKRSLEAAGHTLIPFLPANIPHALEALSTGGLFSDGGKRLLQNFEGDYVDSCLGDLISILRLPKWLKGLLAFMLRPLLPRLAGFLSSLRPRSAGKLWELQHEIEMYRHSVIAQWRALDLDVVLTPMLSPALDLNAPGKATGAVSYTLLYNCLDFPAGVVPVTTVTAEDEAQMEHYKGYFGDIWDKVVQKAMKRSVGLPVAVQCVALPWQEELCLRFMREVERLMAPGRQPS

[1] = target: T2, human recombinant Fatty acid amide hydrolase (Homo sapiens, UniProt O00519); assay: Inhibition of human recombinant FAAH, fluorometric method (assay G); type: biochemical; details: human recombinant enzyme, AMC-anandamide substrate (assay G)
T2 sequence (O00519 1-579): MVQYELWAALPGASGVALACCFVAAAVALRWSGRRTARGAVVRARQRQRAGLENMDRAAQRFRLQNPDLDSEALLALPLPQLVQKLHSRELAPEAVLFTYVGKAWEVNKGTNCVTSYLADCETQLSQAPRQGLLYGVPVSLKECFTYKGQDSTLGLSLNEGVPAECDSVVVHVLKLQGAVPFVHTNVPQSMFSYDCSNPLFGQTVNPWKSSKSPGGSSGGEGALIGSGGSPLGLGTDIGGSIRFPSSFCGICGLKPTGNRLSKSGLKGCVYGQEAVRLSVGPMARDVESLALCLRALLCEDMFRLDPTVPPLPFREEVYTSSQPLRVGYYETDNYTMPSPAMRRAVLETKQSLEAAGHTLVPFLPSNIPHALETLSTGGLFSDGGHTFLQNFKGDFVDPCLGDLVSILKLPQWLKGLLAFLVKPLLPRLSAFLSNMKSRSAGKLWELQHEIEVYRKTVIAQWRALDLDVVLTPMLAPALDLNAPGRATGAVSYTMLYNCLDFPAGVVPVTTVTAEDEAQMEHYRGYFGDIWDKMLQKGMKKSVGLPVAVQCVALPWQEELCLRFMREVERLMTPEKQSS
Method: FAAH activity is measured using the modified method described by Omeir et al., Arachidonoyl ethanolamide-[1,2-14C] as a substrate for anandamide amidase. Life Sci. 1995;56(23-24):1999-2005. Human recombinant enzyme is preincubated with reference compound (methylarachidonlyfluorophosphonate, MAFP) and test compounds for 30 min at room temperature in 50 mM Tris containing 1 mM EDTA and 0.1% fatty acid free BSA (pH 8.0). Substrate (7-amino-4-methyl coumarin-arachidonamide, AMC-anandamide) is then added and incubated for 30 min at room temperature. The reaction is stopped by the addition of 2.5 µl of 10 µM URB597. Released 7-amino-4-methyl coumarin (AMC) is detected by fluorometry in order to ascertain any interactions of test compounds with the FAAH enzyme.

IL-8 = assay: Induced chemokine IL-8 in HaCaT keratinocytes; type: cell-based, human; details: Figure 6, 5 µM, tolerogen 10 µg/ml, 6h
Method: • Figure 1: AEA re-uptake inhibition of 2E,4E-dieneamides 1 and 9 into human primary monocytes and U937 cells. […] Data are mean values ± SEM of 3 independent experiments in a sigmoidal dose-response curve. • Figure 2: Concentration-dependent effects of 4 and 5 on FAAH activity. […] The maximal inhibition (32%) of 5 was measured at 1 µM. Data are mean values ± SEM of 3 independent experiments. • Figure 3: Effects of low nM concentrations of N-alkylamide 7 on FAAH activity alone and in combination with the FAAH inhibitor URB597. […] Data are mean values ± SEM of 3 independent experiments. • Figure 4: 1 and 9 inhibit LPS-induced TNF-alpha release into culture medium (measured by ELISA). Human macrophages (10^6 cells) were stimulated with LPS (500 ng/ml) and treated with UCM707 and/or compounds 1 and 9 at 5 µM for 18 h. N = 3 ± SEM. • Figure 5: UCM707 (positive control) and compounds 1 and 9 diminish NO2^- production. Human macrophages (10^6 cells) were stimulated with LPS (500 ng/ml) and treated with UCM707 and/or compounds 1 and 9 at 5 µM for 18 h. Culture supernatants were assayed for nitrite levels, using the Griess reagent as a reflection of NO production. Results are the mean ± SEM of four independent experiments performed in duplicate • Figure 6: In CB receptor expressing human HaCaT keratinocytes (10^6 cells) UCM707 (control) 1 and 9 like the endocannabinoid anandamide (each 5 µM) inhibited tolerogen (10 µg/ml) induced chemokine IL-8 (6h stimulation and incubation). N = 3 ± SEM.

SMILES | FAAH inhibition at 1 µM (FAAH) | FAAH inhibition at 1 µM [1] | tolerogen induced chemokine IL-8 (IL-8)
CCCCCCC/C=C/C=C/C(=O)NCCO [Example 1, (2E,4E)-N-(2-hydroxyethyl)dodeca-2,4-diene amide] | <10 % of control | 9 % of control | inhibited
CCCCCCC/C=C/C=C/C(=O)NCCc1cccc(OC)c1 [Example 9, (2E,4E)-N-(3-methoxyphenethyl)dodeca-2,4-diene amide] | 14.63 ± 2.91 % of control | 16 % of control | inhibited
